experiment: Pharmacokinetics in rat plasma after oral and intravenous administration; assay type: in vivo, Sprague Dawley rats; settings: male, Sprague-Dawley, rat, plasma, 100 mg/kg; read-out: t1/2 half-life (converted)
Description: Blood samples were collected at 9 time points, i.e., 0 min, 15 min, 30 min, 60 min, 2 h, 4 h, 8 h, 12 h and 24 h. Plasma levels of Luteolin, Quercetin and Kaempferol were analyzed using HPLC. […]

Compound	half-life
O=c1cc(-c2ccc(O)c(O)c2)oc2cc(O)cc(O)c12 [Ingredient 1, 3′,4′,5,7-tetrahydroxyflavone]	2.26 h
O=c1c(O)c(-c2ccc(O)c(O)c2)oc2cc(O)cc(O)c12 [Ingredient 2, 3,3′,4′5,7-Penthydroxyflavone]	1.71 h
O=c1c(O)c(-c2ccc(O)cc2)oc2cc(O)cc(O)c12 [Ingredient 3, 3,5,7-trihydroxy-2-(4-hydroxyphenyl)-4H-1-benzopyran-4-one]	2.45 h

same assay, conditions: male, Sprague-Dawley, rat, plasma, iv, 100 mg/kg; read-out: AUC0.24 (IV)

Compound	AUC
O=c1cc(-c2ccc(O)c(O)c2)oc2cc(O)cc(O)c12 [Ingredient 1, 3′,4′,5,7-tetrahydroxyflavone]	90100 ng·h/mL
O=c1c(O)c(-c2ccc(O)c(O)c2)oc2cc(O)cc(O)c12 [Ingredient 2, 3,3′,4′5,7-Penthydroxyflavone]	27200 ng·h/mL
O=c1c(O)c(-c2ccc(O)cc2)oc2cc(O)cc(O)c12 [Ingredient 3, 3,5,7-trihydroxy-2-(4-hydroxyphenyl)-4H-1-benzopyran-4-one]	93800 ng·h/mL

same assay, conditions: male, Sprague-Dawley, rat, plasma, oral, 100 mg/kg

Compound	Cmax	Tmax
O=c1cc(-c2ccc(O)c(O)c2)oc2cc(O)cc(O)c12 [Ingredient 1, 3′,4′,5,7-tetrahydroxyflavone]	127 ng/mL	1 h
O=c1c(O)c(-c2ccc(O)c(O)c2)oc2cc(O)cc(O)c12 [Ingredient 2, 3,3′,4′5,7-Penthydroxyflavone]	51.9 ng/mL	1 h
O=c1c(O)c(-c2ccc(O)cc2)oc2cc(O)cc(O)c12 [Ingredient 3, 3,5,7-trihydroxy-2-(4-hydroxyphenyl)-4H-1-benzopyran-4-one]	165 ng/mL	4 h

same assay, conditions: male, Sprague-Dawley, rat, plasma, po, 100 mg/kg; read-out: AUC0.24 (Oral)

Compound	AUC
O=c1cc(-c2ccc(O)c(O)c2)oc2cc(O)cc(O)c12 [Ingredient 1, 3′,4′,5,7-tetrahydroxyflavone]	1170 ng·h/mL
O=c1c(O)c(-c2ccc(O)c(O)c2)oc2cc(O)cc(O)c12 [Ingredient 2, 3,3′,4′5,7-Penthydroxyflavone]	248 ng·h/mL
O=c1c(O)c(-c2ccc(O)cc2)oc2cc(O)cc(O)c12 [Ingredient 3, 3,5,7-trihydroxy-2-(4-hydroxyphenyl)-4H-1-benzopyran-4-one]	2710 ng·h/mL

same assay, conditions: rat plasma; ProFine 100 mg/kg (n = 3); oral vs IV

Compound	Bioavailabilty
O=c1cc(-c2ccc(O)c(O)c2)oc2cc(O)cc(O)c12 [Ingredient 1, 3′,4′,5,7-tetrahydroxyflavone]	1.30%
O=c1c(O)c(-c2ccc(O)c(O)c2)oc2cc(O)cc(O)c12 [Ingredient 2, 3,3′,4′5,7-Penthydroxyflavone]	0.91%
O=c1c(O)c(-c2ccc(O)cc2)oc2cc(O)cc(O)c12 [Ingredient 3, 3,5,7-trihydroxy-2-(4-hydroxyphenyl)-4H-1-benzopyran-4-one]	2.89%
